# Results published in ChEMBL document CHEMBL1122817, “Synthesis and biological activity of substituted [[3(S)-(acylamino)-2-oxo-1-azetidinyl]oxy]acetic acids. A new class of heteroatom-activated beta-lactam antibiotics” (1985).
# Tests used:
# [1] = test system: Salmonella enterica subsp. enterica serovar Gallinarum; assay: Inhibitory activity against Salmonella gallinarum X142 at 1 mg/mL concentration using Agar disk plate assay; format: functional
# Escherichia coli [2] = assay: Inhibitory activity against Escherichia coli X580 at 1 mg/mL concentration using Agar disk plate assay; format: functional
# Serratia marcescens [3] = assay: Inhibitory activity against Serratia marcescens X99 at 1 mg/mL concentration using Agar disk plate assay; format: functional
# Escherichia coli [4] = assay: Inhibitory activity against Escherichia coli X161 at 1 mg/mL concentration using Agar disk plate assay; format: functional
# Escherichia coli [5] = assay: Inhibitory activity against Escherichia coli X161M at 1 mg/mL concentration using Agar disk plate assay; format: functional
# Proteus vulgaris [6] = assay: Inhibitory activity against Proteus vulgaris X45 at 1 mg/mL concentration using Agar disk plate assay; format: functional
# Bacillus subtilis [7] = assay: Inhibitory activity against Bacillus Subtilis X12 at 10 mg/mL concentration using Agar disk plate assay; format: functional
# Proteus inconstans = assay: Minimum inhibitory concentration against Proteus inconstans PR33; format: functional; conditions: Providencia alcalifaciens
# [8] = test system: Acinetobacter calcoaceticus; assay: Minimum inhibitory concentration against Acinetobacter calcoaceticus AC12; format: functional
# Serratia marcescens [9] = assay: Inhibitory activity against Serratia marcescens X99 at 10 mg/mL concentration using Agar disk plate assay; format: functional
# [10] = test system: Geobacillus stearothermophilus; assay: Inhibitory activity against Bacillus Stearothermophilus C451 at 1 mg/mL concentration using Agar disk plate assay; format: functional
# Escherichia coli [11] = assay: Inhibitory activity against Escherichia coli X161M at 10 mg/mL concentration using Agar disk plate assay; format: functional
# Bacillus subtilis [12] = assay: Inhibitory activity against Bacillus Subtilis X12 at 1 mg/mL concentration using Agar disk plate assay; format: functional
# Bacillus subtilis [13] = assay: Inhibitory activity against Bacillus Subtilis X12M at 10 mg/mL concentration using Agar disk plate assay; format: functional
# Staphylococcus aureus [14] = assay: Inhibitory activity against Staphylococcus aureus X1 at 10 mg/mL concentration using Agar disk plate assay; format: functional
# Escherichia coli [15] = assay: Minimum inhibitory concentration against Escherichia coli TEM; format: functional
# Klebsiella pneumoniae [16] = assay: Minimum inhibitory concentration against Klebsiella pneumoniae X68; format: functional
# Klebsiella aerogenes [17] = assay: Minimum inhibitory concentration against Enterobacter aerogenes EB 17; format: functional
# Citrobacter freundii = assay: Minimum inhibitory concentration against Citrobacter freundii CF17; format: functional
# Serratia marcescens [18] = assay: Minimum inhibitory concentration against Serratia marcescens X99; format: functional
# Escherichia coli [19] = assay: Inhibitory activity against Escherichia coli X161 at 10 mg/mL concentration using Agar disk plate assay; format: functional
# Escherichia coli [20] = assay: Minimum inhibitory concentration against Escherichia coli EC14; format: functional
# Enterobacter cloacae [21] = assay: Minimum inhibitory concentration against Enterobacter cloacae 265A; format: functional
# Serratia marcescens [22] = assay: Minimum inhibitory concentration against Serratia marcescens SE3; format: functional
# Pseudomonas aeruginosa [23] = assay: Inhibitory activity against Pseudomonas aeruginosa X48 at 10 mg/mL concentration using Agar disk plate assay; format: functional
# [24] = test system: Geobacillus stearothermophilus; assay: Inhibitory activity against Bacillus Stearothermophilus C451 at 10 mg/mL concentration using Agar disk plate assay; format: functional
# Ralstonia solanacearum [25] = assay: Inhibitory activity against Pseudomonas solanacearum X185 at 10 mg/mL concentration using Agar disk plate assay; format: functional
# Streptococcus = assay: Minimum inhibitory concentration against Streptococcus sp. Group D (2 strains); format: functional
# Proteus vulgaris [26] = assay: Inhibitory activity against Proteus vulgaris X45 at 10 mg/mL concentration using Agar disk plate assay; format: functional
# Klebsiella pneumoniae [27] = assay: Minimum inhibitory concentration against Klebsiella pneumoniae X26; format: functional
# Klebsiella aerogenes [28] = assay: Minimum inhibitory concentration against Enterobacter aerogenes C32; format: functional
# Streptococcus pyogenes = assay: Minimum inhibitory concentration against Streptococcus pyogenes C203; format: functional
# Escherichia coli [29] = assay: Inhibitory activity against Escherichia coli X580 at 10 mg/mL concentration using Agar disk plate assay; format: functional
# Salmonella typhi [30] = assay: Minimum inhibitory concentration against Salmonella typhi X514; format: functional, Salmonella enterica subsp. enterica serovar Typhi; conditions: Salmonella enterica
# Haemophilus influenzae [31] = assay: Minimum inhibitory concentration against Haemophilus influenza 76; format: functional
# Haemophilus influenzae [32] = assay: Minimum inhibitory concentration against Haemophilus influenza C.L; format: functional
# Klebsiella pneumoniae [33] = assay: Minimum inhibitory concentration against Klebsiella pneumoniae KAE; format: functional
# Pseudomonas aeruginosa [34] = assay: Minimum inhibitory concentration against Pseudomonas aeruginosa (4 strains); format: functional
# Micrococcus luteus [35] = assay: Inhibitory activity against Sarcina lutea X186 at 10 mg/mL concentration using Agar disk plate assay; format: functional
# Micrococcus luteus [36] = assay: Inhibitory activity against Sarcina lutea X186 at 1 mg/mL concentration using Agar disk plate assay; format: functional
# Staphylococcus aureus [37] = assay: Minimum inhibitory concentration against Staphylococcus aureus (4 strains); format: functional
# Escherichia coli [38] = assay: Minimum inhibitory concentration against Escherichia coli N10; format: functional
# Morganella morganii = assay: Minimum inhibitory concentration against Proteus morganii PR15; format: functional
# Providencia rettgeri = assay: Minimum inhibitory concentration against Proteus rettgeri C24; format: functional
# Salmonella typhi [39] = assay: Minimum inhibitory concentration against Salmonella typhi 1335; format: functional, Salmonella enterica subsp. enterica serovar Typhi; conditions: Salmonella enterica
# Bacillus subtilis [40] = assay: Inhibitory activity against Bacillus Subtilis X12M at 1 mg/mL concentration using Agar disk plate assay; format: functional
# Streptococcus pneumoniae = assay: Minimum inhibitory concentration against Streptococcus pneumoniae Park I; format: functional
# Ralstonia solanacearum [41] = assay: Inhibitory activity against Pseudomonas solanacearum X185 at 1 mg/mL concentration using Agar disk plate assay; format: functional
# [42] = test system: Staphylococcus epidermidis; assay: Minimum inhibitory concentration against Staphylococcus epidermidis (2 strains); format: functional
# [43] = test system: Salmonella enterica subsp. enterica serovar Gallinarum; assay: Inhibitory activity against Salmonella gallinarum X142 at 10 mg/mL concentration using Agar disk plate assay; format: functional
# Enterobacter cloacae [44] = assay: Minimum inhibitory concentration against Enterobacter cloacae EB5; format: functional
compound,measurement,setting,value
CO/N=C(/C(=O)N[C@@H]1C(=O)N(O[C@H](OC(C)=O)C(=O)[O-])[C@H]1C)c1csc(N)n1.[K+],Zone of inhibition,[1],17 mm
same,Zone of inhibition,Escherichia coli [2],38 mm
same,Zone of inhibition,Serratia marcescens [3],18 mm
same,Zone of inhibition,Escherichia coli [4],26 mm
same,Zone of inhibition,Escherichia coli [5],28 mm
same,Zone of inhibition,Proteus vulgaris [6],25 mm
CO/N=C(\C(=O)N[C@@H]1C(=O)N(O[C@H](OC(C)=O)C(=O)[O-])[C@H]1C)c1csc(N)n1.[K+],Zone of inhibition,[1],25 mm
same,Zone of inhibition,Escherichia coli [2],46 mm
same,Zone of inhibition,Serratia marcescens [3],24 mm
same,Zone of inhibition,Escherichia coli [4],17 mm
same,Zone of inhibition,Escherichia coli [5],30 mm
same,Zone of inhibition,Proteus vulgaris [6],28 mm
CO/N=C(/C(=O)N[C@@H]1C(=O)N(S(=O)(=O)[O-])[C@H]1C)c1csc(N)n1.[K+],Zone of inhibition,Bacillus subtilis [7],23 mm
same,MIC,Proteus inconstans,0.03 µg/mL
same,MIC,[8],4 µg/mL
same,Zone of inhibition,[1],48 mm
same,Zone of inhibition,Serratia marcescens [9],40 mm
same,Zone of inhibition,Escherichia coli [2],54 mm
same,Zone of inhibition,[10],25 mm
same,Zone of inhibition,Serratia marcescens [3],33 mm
same,Zone of inhibition,Escherichia coli [11],54 mm
same,Zone of inhibition,Bacillus subtilis [12],15 mm
same,Zone of inhibition,Bacillus subtilis [13],30 mm
same,Zone of inhibition,Staphylococcus aureus [14],22 mm
same,MIC,Escherichia coli [15],0.125 µg/mL
same,MIC,Klebsiella pneumoniae [16],0.125 µg/mL
same,MIC,Klebsiella aerogenes [17],0.125 µg/mL
same,MIC,Citrobacter freundii,0.25 µg/mL
same,MIC,Serratia marcescens [18],0.25 µg/mL
same,Zone of inhibition,Escherichia coli [19],40 mm
same,Zone of inhibition,Escherichia coli [4],40 mm
same,MIC,Escherichia coli [20],0.06 µg/mL
same,MIC,Enterobacter cloacae [21],> 64 µg/mL
same,MIC,Serratia marcescens [22],0.25 µg/mL
same,Zone of inhibition,Pseudomonas aeruginosa [23],25 mm
same,Zone of inhibition,[24],30 mm
same,Zone of inhibition,Ralstonia solanacearum [25],40 mm
same,MIC,Streptococcus,> 64 µg/mL
same,Zone of inhibition,Proteus vulgaris [26],46 mm
same,MIC,Klebsiella pneumoniae [27],0.06 µg/mL
same,MIC,Klebsiella aerogenes [28],0.125 µg/mL
same,MIC,Streptococcus pyogenes,4 µg/mL
same,Zone of inhibition,Escherichia coli [29],66 mm
same,MIC,Salmonella typhi [30],0.06 µg/mL
same,MIC,Haemophilus influenzae [31],0.25 µg/mL
same,Zone of inhibition,Escherichia coli [5],40 mm
same,MIC,Haemophilus influenzae [32],0.5 µg/mL
same,MIC,Klebsiella pneumoniae [33],> 64 µg/mL
same,MIC,Pseudomonas aeruginosa [34],> 64 µg/mL
same,Zone of inhibition,Micrococcus luteus [35],27 mm
same,Zone of inhibition,Micrococcus luteus [36],25 mm
same,MIC,Staphylococcus aureus [37],> 64 µg/mL
same,MIC,Escherichia coli [38],0.125 µg/mL
same,MIC,Morganella morganii,0.25 µg/mL
same,MIC,Providencia rettgeri,0.03 µg/mL
same,MIC,Salmonella typhi [39],0.125 µg/mL
same,Zone of inhibition,Bacillus subtilis [40],16 mm
same,Zone of inhibition,Proteus vulgaris [6],40 mm
same,MIC,Streptococcus pneumoniae,4 µg/mL
same,Zone of inhibition,Ralstonia solanacearum [41],29 mm
same,MIC,[42],> 64 µg/mL
same,Zone of inhibition,[43],36 mm
same,MIC,Enterobacter cloacae [44],0.125 µg/mL
CO/N=C(/C(=O)N[C@H]1CN(OCC(=O)[O-])C1=O)c1csc(N)n1.[K+],MIC,Proteus inconstans,2 µg/mL
same,MIC,[8],> 64 µg/mL
same,Zone of inhibition,Serratia marcescens [9],16 mm
same,Zone of inhibition,Escherichia coli [11],19 mm
same,Zone of inhibition,Bacillus subtilis [13],13 mm
same,MIC,Escherichia coli [15],32 µg/mL
same,MIC,Klebsiella pneumoniae [16],8 µg/mL
same,MIC,Klebsiella aerogenes [17],8 µg/mL
same,MIC,Citrobacter freundii,16 µg/mL
same,MIC,Serratia marcescens [18],16 µg/mL
same,Zone of inhibition,Escherichia coli [19],20 mm
same,MIC,Escherichia coli [20],4 µg/mL
same,MIC,Enterobacter cloacae [21],> 64 µg/mL
same,MIC,Serratia marcescens [22],16 µg/mL
same,Zone of inhibition,[24],24 mm
same,Zone of inhibition,Ralstonia solanacearum [25],16 mm
same,MIC,Streptococcus,> 64 µg/mL
same,Zone of inhibition,Proteus vulgaris [26],21 mm
same,MIC,Klebsiella pneumoniae [27],8 µg/mL
same,MIC,Klebsiella aerogenes [28],8 µg/mL
same,MIC,Streptococcus pyogenes,16 µg/mL
same,Zone of inhibition,Escherichia coli [29],37 mm
same,MIC,Salmonella typhi [30],4 µg/mL
same,MIC,Haemophilus influenzae [31],16 µg/mL
same,MIC,Haemophilus influenzae [32],16 µg/mL
same,MIC,Klebsiella pneumoniae [33],> 64 µg/mL
same,MIC,Pseudomonas aeruginosa [34],> 64 µg/mL
same,Zone of inhibition,Micrococcus luteus [35],21 mm
same,MIC,Staphylococcus aureus [37],> 64 µg/mL
same,MIC,Escherichia coli [38],8 µg/mL
same,MIC,Morganella morganii,32 µg/mL
same,MIC,Providencia rettgeri,2 µg/mL
same,MIC,Salmonella typhi [39],8 µg/mL
same,MIC,Streptococcus pneumoniae,32 µg/mL
same,MIC,[42],> 64 µg/mL
same,Zone of inhibition,[43],22 mm
same,MIC,Enterobacter cloacae [44],16 µg/mL
